Tests used:
[1] = test system: HEK293; assay: Compound was tested for NF-kB inhibitory activity in HEK 293 cells; format: functional, Homo sapiens
[2] = test system: HeLa; assay: Compound was tested for NF-kB inhibitory activity in Hela M cells; format: functional, Homo sapiens

Structure (SMILES)	Inhibitory activity [1]	Inhibitory activity [2]
CC(=O)O[C@H]1C(/C=C/C(C)(O)CCCCCCCCN2C(=O)c3ccccc3C2=O)=CC(=O)[C@@H]2O[C@@H]21 (stereo partly drawn)	<=0	<=0
CC(C)=CC(=O)C1=C[C@@H](O)[C@@H]2O[C@@H]2[C@@H]1O	65	85
CC(C)(O)/C=C/C1=CC(=O)[C@@H]2O[C@@H]2[C@@H]1O		>=100
CC(=O)O[C@H]1C(/C=C/C(C)(C)O)=CC(=O)[C@@H]2O[C@@H]21	<=0	<=0
CC(C)(O)/C=C/C1=CC(=O)[C@@H]2O[C@@H]2[C@H]1O	4	<=0
CC(C)=C[C@@H](O)C1=C[C@@H](O)[C@@H]2O[C@@H]2C1=O	<=0	<=0
CC(C)(O)/C=C/C1=C[C@@H](O)[C@@H]2O[C@@H]2C1=O	63	>=100
CC(C)=C[C@H](O)C1=C[C@@H](O)[C@@H]2O[C@@H]2C1=O [PANEPOXYDONE]	<=0	<=0
CC(C)(O)/C=C/C1=CC(=O)[C@@H]2O[C@@H]2C1=O	<=0	<=0
CC(=O)O[C@@H]1C(/C=C/C(C)(C)O)=CC(=O)[C@@H]2O[C@H]12	<=0	<=0
CC(=O)O[C@@H]1C(/C=C/C(C)(C)O)=C[C@@H](O)[C@@H]2O[C@@H]21	58	>=100
CC(=O)O[C@H]1C(/C=C/C(C)(C)O)=C[C@@H](O)[C@@H]2O[C@@H]21	49	>=100

Source: ChEMBL document CHEMBL1135852, “Inhibitors of NF-kappaB signaling: design and synthesis of a biotinylated isopanepoxydone affinity reagent” (2002)
